# In patent EP2450046B1, “A MEDICINAL COMPOSITION FOR THE TREATMENT OF BRONCHITIS AND PREPARATION THEREOF” (Hebei Yiling Medicine Research Institute Co., Ltd., priority 2009, dated 2011):
# Read-outs that look alike come from different tables or passages of the source.
# Legend:
# [1] = test system: xylene-induced ear swelling in mice; assay: Effect on xylene-induced ear swelling in mice; type: in vivo, Kunming male mice; details: Aspirin 0.2 g/kg i.g. q.d. 3 days; weight of right minus left ear piece; n=10
# Excerpt: Sixty Kunming male mice of Grade II with the mean body weight of 19.77 ± 0.91 g, provided by the breeding farm of the Institute of Laboratory Animal Science, Chinese Academy of Medical Sciences, License number: SCXK (Jing) 2000-0006. • (1) The present medication to be tested, 6.25 g crude drugs/g, provided by […] Pharmaceutical Co. […] SFDA Approval No. Z-11; Lot number of the product: 060112; valid until December 2007. • (3) Aspirin enteric-coated tablet as a western medicine control, 0.3 g/tablet, produced by Yantai the Second Pharmaceutical Factory), lot number: 011102. The above-described medications were formulated with distilled water into the required concentrations in the experiment. Sixty healthy mice were randomly assigned into the following six groups with 10 animals per group: […] (2) the Aspirin group (0.2 g/kg); (3) the […] group (2 g crude drugs/kg); (4) the low dosage group of the present medication (L-dosage group, 3g crude drugs/kg); (5) the medium dosage group of the present medication (M-dosage group, 6g crude drugs/kg); (6)the high dosage group of the present medication (H-dosage group, 12g crude drugs/kg). […] Fifteen minutes later, the animal was sacrificed by dislocation. […] The degree of ear swelling for each mouse was calculated by subtraction of the weight of the left piece from that of the right piece. […]
# [2] = test system: carrageenan-induced swelling of rat's footpad; assay: Effect on carrageenan-induced swelling of rat's footpad; type: in vivo, Wistar male rats; details: for Foot volume after inflammation / Foot volume, Difference / Swelling rate / inhibition at 150 mg/kg: Aspirin 0.15 g/kg i.g. q.d. 3 days; for inhibition at 150 mg/kg: Rattus norvegicus, po, read-out: Inhibition rate
# Method: • (1) The present medication to be tested, 6.25g crude drugs/g, provided by […] Pharmaceutical Co. […] SFDA Approval No. Z-11; […] The above-described medications were prepared into the required concentrations with distilled water in the experiment. • (4) Carrageenan, from SIGMA, lot number: 117H0151, prepared into required concentrations for the experiment. Sixty while Wistar male rats of Grade I with the mean body weight of 157.05 ± 8.49 g, provided by Institute of Laboratory Animal Science, Chinese Academy of Medical Sciences, License number: […] The sixty healthy rats were randomly assigned into the following six groups: (1) the blank control group administered with distilled water (10 ml/kg); […] (3) the […] group (1.5 g crude drugs/kg); (4) the low dosage group of the present medication (L-dosage group, 2 g crude drugs/kg); (5) the medium dosage group of the present medication (M-dosage group, 4 g crude drugs/kg); (6)the high dosage group of the present medication (H-dosage group, 8 g crude drugs/kg). The volume of the left hind foot of each animal determined by capillary amplification method was used as the value prior to administration. […] Comparisons among the groups were performed on the difference between the left foot volumes before and after inflammation by t-test.
# [3] = test system: tampon-induced granuloma in rats; assay: Effect on small tampon-induced granuloma in rats; type: in vivo; details: Aspirin 0.15 g/kg i.g. q.d. 7 days; n=10
# Excerpt: Sixty Wistar […] of Grade II evenly composed of males and females with the mean body weight of 132.37 ± 6.31 g, provided by the breeding farm of the Institute of Laboratory Animal Science, Chinese […] of Medical Sciences, and License number: SCXK (Jing) 2000-0006. • (1) The present medication to be tested, 6.25 g crude drugs/g, provided by […] Pharmaceutical Co. […] No. Z-11; Lot number: 060112. • (3) Aspirin Enteric-coated Tablet as a western medicine control, 0.3 g/tablet, produced by Yantai the Second Pharmaceutical Factory), lot number: 051102. The medication was prepared to required concentrations with distilled water in the experiment. • (4) Ampicillin Sodium Injection (ASI), 0.5 g/bottle, Produced by North China Pharmaceutical Co., Ltd. lot number: F0111207. […] The average wet and dry weights of the post-inflammation granuloma for each of the groups were calculated, from which the original weight of the cotton ball had been subtracted, and were compared among the groups by t-test.
smiles,measurement,setting,value
CC(=O)Oc1ccccc1C(=O)O [Aspirin],Swelling rate,[1],3.50 ± 0.71 mg
same,Foot volume after inflammation,[2]; 0.5h,1.19 ± 0.04 mL
same,"Foot volume, Difference",[2]; 0.5h,0.21 ± 0.05 mL
same,Swelling rate,[2]; 0.5h,21.4±5.49 %
same,Foot volume after inflammation,[2]; 1h,1.23 ± 0.04 mL
same,"Foot volume, Difference",[2]; 1h,0.25 ± 0.03 mL
same,Swelling rate,[2]; 1h,25.4±3.87 %
same,Foot volume after inflammation,[2]; 2h,1.27 ± 0.02 mL
same,"Foot volume, Difference",[2]; 2h,0.29 ± 0.03 mL
same,Swelling rate,[2]; 2h,29.7±4.00 %
same,Foot volume after inflammation,[2]; 4h,1.30 ± 0.04 mL
same,"Foot volume, Difference",[2]; 4h,0.32 ± 0.04 mL
same,Swelling rate,[2]; 4h,32.80±4.78 %
same,Foot volume after inflammation,[2]; 6h,1.24 ± 0.03 mL
same,"Foot volume, Difference",[2]; 6h,0.26 ± 0.04 mL
same,Swelling rate,[2]; 6h,26.26±3.95 %
same,Foot volume before inflammation,"[2]; Aspirin group 0.15 g/kg, baseline, n=10",0.98 ± 0.03 mL
same,inhibition at 150 mg/kg,[2]; 0.5h,41.5%
same,inhibition at 150 mg/kg,[2]; 1h,41.2%
same,inhibition at 150 mg/kg,[2]; 2h,38.6%
same,inhibition at 150 mg/kg,[2]; 4h,32.1%
same,inhibition at 150 mg/kg,[2]; 6h,45.6%
same,Dry weight of granuloma,[3],99.20 ± 10.16 mg
same,Wet weight of granuloma,[3],457.85 ± 50.01 mg
